# Results published in patent publication US20220274980A1, “PHARMACOLOGICAL INHIBITORS OF THE ENL YEATS DOMAIN” (priority 2019, published 2022).
# Experiments:
# [1] = tested on: ENL target gene expression (MYC, HOXA9); assay: qRT-PCR of ENL target gene expression; type: cell-based
# Source text: Quantitative reverse-transcriptase PCR (qRT-PCR). […] The ddCt method was used to quantify fold change differences in gene expression between control and treated samples (using expression of B2M for normalization).
# [2] = target: T1, ENL localization to chromatin of target gene promoters (Homo sapiens, UniProt Q03111); assay: ENL ChIP-qPCR in MV4;11 cells; type: cell-based; conditions: HOX intergenic region as negative control locus
# T1 construct: 11 cells; endogenous in cells; host or cells: MV4;11
# T1 sequence (Q03111 1-559): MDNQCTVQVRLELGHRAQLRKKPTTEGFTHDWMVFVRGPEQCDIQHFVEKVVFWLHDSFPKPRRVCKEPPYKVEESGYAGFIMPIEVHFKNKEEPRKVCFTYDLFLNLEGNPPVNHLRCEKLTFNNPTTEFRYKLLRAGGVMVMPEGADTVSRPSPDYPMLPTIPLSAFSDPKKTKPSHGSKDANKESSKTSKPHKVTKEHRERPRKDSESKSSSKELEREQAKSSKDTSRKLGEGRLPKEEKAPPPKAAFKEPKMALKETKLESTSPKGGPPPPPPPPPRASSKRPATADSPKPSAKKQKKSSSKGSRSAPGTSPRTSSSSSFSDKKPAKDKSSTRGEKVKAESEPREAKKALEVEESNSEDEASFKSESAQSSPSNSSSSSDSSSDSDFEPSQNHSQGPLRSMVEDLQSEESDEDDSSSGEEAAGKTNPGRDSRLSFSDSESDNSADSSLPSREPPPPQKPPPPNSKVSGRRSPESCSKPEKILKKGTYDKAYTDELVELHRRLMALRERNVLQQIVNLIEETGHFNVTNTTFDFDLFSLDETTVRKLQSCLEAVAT
# Procedure: ChIP-qPCR. Chromatin immunoprecipitation (ChIP)-qPCR of ENL was performed in MV4; 11 cells using 50 million cells per treatment. Crosslinking was performed in batches of 50 million cells in 50 mL tissue culture media by addition of 1/10 volume of 10× crosslinking solution (11% formaldehyde, 50 mM HEPES pH 7.3, 100 mM NaCl, 1 mM EDTA pH 8.0, 0.5 mM EGTA ph 8.0). After 10 min of crosslinking at room temperature, formaldehyde was quenched with 125 mM glycine, cells were then washed three times in PBS pH 7.4, flash frozen in liquid nitrogen, and stored at −80° C. Frozen pellets were thawed on ice, resuspended in cold lysis buffer 1 (LB1; 5 mL per 50 million cells; 50 mM HEPES pH 7.3, 140 mM NaCl, 1 mM EDTA, 10% glycerol, 0.5% NP-40, and 0.25% Triton X-100, Roche protease inhibitor cocktail), and rotated for 10 minutes at 4° C. LB1 was removed and pelletswere resuspended in cold lysis buffer 2 (LB2; 5 mL per 50 million cells; 10 mM Tris-HCl pH 8.0, 200 mM NaCl, 1 mM EDTA pH 8.0 and 0.5 mM EGTA pH 8.0, Roche protease inhibitor cocktail) and rotated for 10 minutes at 4° C. LB2 was removed and pellets were resuspended in cold sonication buffer (1.5 mL per 50 million cells; 50 mM HEPES pH 7.3, 140 mM NaCl, 1 mM EDTA, 1 mM EGTA, 1% Triton X-100, 0.1% Na-deoxycholate, 0.1% SDS, Roche protease inhibitor cocktail). […] Results were quantified as percentage of the input sample.
# [3] = Half-life in human liver microsomes; type: in vitro ADME; conditions: read-out: t1/2 (min) human liver microsomes
structure (smiles),measurement,setting,value
O=C(NC1CCC1)c1ccc2nc(-c3cccc(NS(=O)(=O)NCCN4CCCCC4)c3)cn2c1 [Compound 93],suppression of ENL target gene expression,[1],Suppression of ENL target gene expression
same,localization of ENL to chromatin of target gene promoters by ChIP-qPCR,[2],prevents localization of ENL to chromatin of target gene promoters
same,half-life,[3],22.6 min
